# Reference: patent US20230146455A1, “TREATMENT OF INFLAMMATORY DISEASES WITH PEPTIDES AND PHARMACEUTICAL COMPOSITIONS” (Yuyu Pharma, Inc., priority 2020, published 2023)
# “And” between values parts separate entries of the source, which are not always exact repeats. Equal entries are not always repeated. Where a SMILES comes first, the peptide text is derived from it. [ ]: non-standard residue; d: D form. Hyp = O=C(O)[C@@H]1C[C@@H](O)CN1
# System: Fas Ligand
# Test: Example 9 Luminex, LPS hPBMCs: Fas Ligand
# Type: cell-based, human
# Settings: for Fas Ligand Concentration / Fas Ligand conc/live cell / MFI, bead Fas Ligand: single replicates
# Description: Treatment Human PBMCs were pretreated with YY-101, YDE-011 and YDE-043 or reference compound; Xiidra® at various concentration (ranging from 1 nM to 100 uM) for 2 h before stimulation. An equal volume of 0.5% DMSO was used as a vehicle control. Then, the cells were treated with LPS at 5 ug/ml. The supernatants from treated cells were harvested at 24 h and placed in a 96 well for Luminex cytokine & chemokine profiling using a Luminex 200 multiplex assay (Luminex; R&D system, USA).
# The main study arm with triplicate wells per group in a 24-well plate: • 1. Blank • 2. PBMC: 0.5% DMSO • 3. PBMC+LPS (5 ug/ml) • 4. PBMC+YY-101 100 uM • 5. PBMC+YY-101 10 uM • 6. PBMC+YY-101 1 uM • 7. PBMC+YY-101 0.1 uM • 8. PBMC+YY-101 0.01 uM • 9. PBMC+LPS (5 ug/ml)+Xiidra®100 uM • 10. PBMC+LPS (5 ug/ml)+Xiidra® 10 uM • 11. PBMC+LPS (5 ug/ml)+Xiidra® 1 uM • 12. PBMC+LPS (5 ug/ml)+Xiidra®0.1 uM • 13. PBMC+LPS (5 ug/ml)+Xiidra®0.01 uM • 14. PBMC+LPS (5 ug/ml)+Xiidra®0.001 uM • 15. PBMC+LPS (5 ug/ml)+YY-101 100 uM • 16. PBMC+LPS (5 ug/ml)+YY-101 10 uM • 17. PBMC+LPS (5 ug/ml)+YY-101 1 uM • 18. PBMC+LPS (5 ug/ml)+YY-101 0.1 uM • 19. PBMC+LPS (5 ug/ml)+YY-101 0.01 uM • 20. PBMC+LPS (5 ug/ml)+YY-101 0.001 uM • 21. PBMC+LPS (5 ug/ml)+YDE-011 100 uM • 22. PBMC+LPS (5 ug/ml)+YDE-011 10 uM • 23. PBMC+LPS (5 ug/ml)+YDE-011 1 uM • 24. PBMC+LPS (5 ug/ml)+YDE-011 0.1 uM • 25. PBMC+LPS (5 ug/ml)+YDE-011 0.01 uM • 26. PBMC+LPS (5 ug/ml)+YDE-011 0.001 uM • 27. PBMC+LPS (5 ug/ml)+YDE-043 100 uM • 28. PBMC+LPS (5 ug/ml)+YDE-043 10 uM • 29. PBMC+LPS (5 ug/ml)+YDE-043 1 uM • 30. PBMC+LPS (5 ug/ml)+YDE-043 0.1 uM • 31. PBMC+LPS (5 ug/ml)+YDE-043 0.01 uM • 32. PBMC+LPS (5 ug/ml)+YDE-043 0.001 uM
# Multiplex assay was used to measure 30 cytokines and chemokines. The 1:2, 1:10 and 1:200 diluted cell supernatant and serial dilution of the standard were dispensed into a 96 well plate at 50 ul/well. Then, the pre-mixed cocktail of antibody-coated magnetic beads was dispensed at 50 ul/well and incubated at room temperature for 2 h in a horizontal orbital microplate shaker at 800±500 rpm. The beads were washed using a magnetic device to prevent loss. The biotin-antibody was dispensed in 50 ul of each well and incubated at room temperature for 1 h in a shaker at 800±500 rpm. After washing, streptavidin-PE was added at 50 ul/well and incubated at room temperature for 30 min in a shaker under the same conditions. Finally, after washing, wash buffer (100 ul/well) was added to the plate and incubated in a shaker for 2 min. The Luminex™ 200 setting were set according to the manufacturer's protocol. The data was calculated with a standard five-parameter logistic nonlinear regression analysis of the data (xPonent software 4.2, USA). The levels of cytokine/chemokine are normalized to the live cell counts (1×10^5 cells/mL) and presented as concentrations per mL (pg/mL or ng/mL).
# [1] = PBMC + LPS(5 ug/ml) + test article 0.001 uM
# [2] = PBMC + LPS(5 ug/ml) + test article 0.01 uM
# [3] = PBMC + LPS(5 ug/ml) + test article 0.1 uM
# [4] = PBMC + LPS(5 ug/ml) + test article 1 uM
# [5] = PBMC + LPS(5 ug/ml) + test article 10 uM
# [6] = PBMC + LPS(5 ug/ml) + test article 100 uM
# [7] = PBMC + test article 0.01 uM, no LPS
# [8] = PBMC + test article 0.1 uM, no LPS
# [9] = PBMC + test article 1 uM, no LPS
# [10] = PBMC + test article 10 uM, no LPS
# [11] = PBMC + test article 100 uM, no LPS
compound,measurement,setting,value
CC(C)C[C@H](NC(=O)CNC(=O)[C@H](CC(=O)O)NC(=O)[C@H](CCC(N)=O)NC(=O)CNC(=O)[C@@H]1C[C@@H](O)CN1)C(=O)N[C@@H](C)C(=O)NCC(=O)N1CCC[C@H]1C(=O)N[C@@H](CCCCN)C(=O)O [YY-101] (H-[Hyp]GQDGLAGPK-OH; N-terminus and C-terminus assumed),"Fas Ligand Concentration, Mean",[1],30.9 pg/mL
same,"Fas Ligand conc/live cell, Mean",[1],4.9 pg/10^5
same,"MFI, bead Fas Ligand, Mean",[1],43.3
same,Fas Ligand Concentration,[1],35.8 pg/mL and 32.7 pg/mL and 24.1 pg/mL
same,Fas Ligand conc/live cell,[1],6.3 pg/10^5 and 4.6 pg/10^5 and 3.7 pg/10^5
same,"MFI, bead Fas Ligand",[1],50.5 and 46.0 and 33.5
same,"Fas Ligand Concentration, Mean",[2],33.8 pg/mL
same,"Fas Ligand conc/live cell, Mean",[2],5.5 pg/10^5
same,"MFI, bead Fas Ligand, Mean",[2],47.5
same,Fas Ligand Concentration,[2],30.7 pg/mL and 39.3 pg/mL and 31.3 pg/mL
same,Fas Ligand conc/live cell,[2],4.8 pg/10^5 and 6.6 pg/10^5 and 5.1 pg/10^5
same,"MFI, bead Fas Ligand",[2],43.0 and 55.5 and 44.0
same,"Fas Ligand Concentration, Mean",[3],29.5 pg/mL
same,"Fas Ligand conc/live cell, Mean",[3],5.1 pg/10^5
same,"MFI, bead Fas Ligand, Mean",[3],41.3
same,Fas Ligand Concentration,[3],32.7 pg/mL and 30.7 pg/mL and 25.2 pg/mL
same,Fas Ligand conc/live cell,[3],5.3 pg/10^5 and 5.9 pg/10^5 and 4.1 pg/10^5
same,"MFI, bead Fas Ligand",[3],46.0 and 43.0 and 35.0
same,"Fas Ligand Concentration, Mean",[4],34.5 pg/mL
same,"Fas Ligand conc/live cell, Mean",[4],5.3 pg/10^5
same,"MFI, bead Fas Ligand, Mean",[4],48.5
same,Fas Ligand Concentration,[4],35.5 pg/mL and 36.2 pg/mL and 31.7 pg/mL
same,Fas Ligand conc/live cell,[4],5.6 pg/10^5 and 5.1 pg/10^5 (2×)
same,"MFI, bead Fas Ligand",[4],50.0 and 51.0 and 44.5
same,"Fas Ligand Concentration, Mean",[5],46.7 pg/mL
same,"Fas Ligand conc/live cell, Mean",[5],7.3 pg/10^5
same,"MFI, bead Fas Ligand, Mean",[5],66.0
same,Fas Ligand Concentration,[5],58.0 pg/mL and 53.7 pg/mL and 28.6 pg/mL
same,Fas Ligand conc/live cell,[5],9.7 pg/10^5 and 8.4 pg/10^5 and 3.8 pg/10^5
same,"MFI, bead Fas Ligand",[5],82.0 and 76.0 and 40.0
same,"Fas Ligand Concentration, Mean",[6],25.4 pg/mL
same,"Fas Ligand conc/live cell, Mean",[6],4.3 pg/10^5
same,"MFI, bead Fas Ligand, Mean",[6],35.2
same,Fas Ligand Concentration,[6],39.0 pg/mL and 16.0 pg/mL and 21.1 pg/mL
same,Fas Ligand conc/live cell,[6],6.2 pg/10^5 and 2.6 pg/10^5 and 4.2 pg/10^5
same,"MFI, bead Fas Ligand",[6],55.0 and 21.5 and 29.0
same,"Fas Ligand Concentration, Mean",[7],7.7 pg/mL
same,"Fas Ligand conc/live cell, Mean",[7],1.5 pg/10^5
same,"MFI, bead Fas Ligand, Mean",[7],8.8
same,Fas Ligand Concentration,[7],6.5 pg/mL and 8.8 pg/mL
same,Fas Ligand conc/live cell,[7],1.3 pg/10^5 and 1.8 pg/10^5
same,"MFI, bead Fas Ligand",[7],7.0 and 10.5
same,"Fas Ligand Concentration, Mean",[8],7.2 pg/mL
same,"Fas Ligand conc/live cell, Mean",[8],1.4 pg/10^5
same,"MFI, bead Fas Ligand, Mean",[8],8.0
same,Fas Ligand Concentration,[8],6.5 pg/mL and 7.8 pg/mL
same,Fas Ligand conc/live cell,[8],1.5 pg/10^5 and 1.3 pg/10^5
same,"MFI, bead Fas Ligand",[8],7.0 and 9.0
same,"Fas Ligand Concentration, Mean",[9],7.5 pg/mL
same,"Fas Ligand conc/live cell, Mean",[9],1.4 pg/10^5
same,"MFI, bead Fas Ligand, Mean",[9],8.5
same,Fas Ligand Concentration,[9],6.5 pg/mL and 8.5 pg/mL
same,Fas Ligand conc/live cell,[9],1.2 pg/10^5 and 1.5 pg/10^5
same,"MFI, bead Fas Ligand",[9],7.0 and 10.0
same,"Fas Ligand Concentration, Mean",[10],13.2 pg/mL
same,"Fas Ligand conc/live cell, Mean",[10],2.1 pg/10^5
same,"MFI, bead Fas Ligand, Mean",[10],17.3
same,Fas Ligand Concentration,[10],14.0 pg/mL and 12.4 pg/mL
same,Fas Ligand conc/live cell,[10],2.2 pg/10^5 and 2.0 pg/10^5
same,"MFI, bead Fas Ligand",[10],18.5 and 16.0
same,"Fas Ligand Concentration, Mean",[11],6.9 pg/mL
same,"Fas Ligand conc/live cell, Mean",[11],1.0 pg/10^5
same,"MFI, bead Fas Ligand, Mean",[11],7.5
same,Fas Ligand Concentration,[11],7.8 pg/mL and 5.9 pg/mL
same,Fas Ligand conc/live cell,[11],1.2 pg/10^5 and 0.8 pg/10^5
same,"MFI, bead Fas Ligand",[11],9.0 and 6.0
